Here are results for four substances from patent US9518107B2, “Pharmaceutical compositions containing polypeptides derived from α-1 antitrypsin and methods of use thereof” (YISSUM RESEARCH DEVELOPMENT COMPANY OF THE HEBREW …, priority 2010, dated 2016).

In one assay the test system is Female C57BL/6 mice. Nature of the assay: Experimental autoimmune encephalitis (EAE), MOG 35-55 induced, neurological score. It is filed as in vivo. As to conditions: for neurological symptoms (neurological score 0 to 6): i.p. 1 μg/kg, thrice a week, from four days after MOG immunization, FIG. 3. The protocol:
Female C57BL/6 mice were injected subcutaneously into 4 sites on the back, adjacent to each of the forelimbs and hindlimbs (total amount 200 μl) with a myelin oligodendritic glycoprotein (MOG) 35-55 fragment emulsified with complete Freund's adjuvant. Thereafter, each animal was i.p. injected with pertusis toxin (PTX; 200 ng/mouse) in PBS and an additional
PTX injection was repeated 2 days later, which is a standard protocol for initiating experimental autoimmune encephalomyelitis (EAE) in mice. UBE polypeptide (SEQ ID NO:2) was intraperitoneally (i.p.) injected (0.3 μg/kg, thrice a week) five days after MOG immunization (day of onset of symptoms). The animals were evaluated for neurological score from 0 (no effect) to 6 (severe neurological symptoms including paralysis). Results are the mean±SE of neurological score (sum of all scores divided by the number of animals in each experimental group) at each of the indicated time intervals after MOG injection.
Female C57BL/6 mice were injected subcutaneously into 4 sites on the back, adjacent to each of the forelimbs and hindlimbs (total amount 200 μl) with a myelin oligodendritic glycoprotein (MOG) 35-55 fragment emulsified with complete Freund's adjuvant. Thereafter, each animal was i.p. injected with pertusis toxin (PTX; 200 ng/mouse) in PBS and an additional PTX injection was repeated 2 days later. Four days after MOG immunization, each mouse received i.p. injections (1 μg/kg, thrice a week) of each of the following polypeptides:
The animals were evaluated for neurological score from 0 (no effect) to 6 (severe neurological symptoms including paralysis). Results are the mean±SE of neurological score (sum of all scores divided by the number of animals in each experimental group) at each of the indicated time intervals after immunization.

The next assay has as its system arthritic mice. As to the kind of experiment: Collagen type II induced arthritis, joint swelling. It is filed as in vivo. As to conditions: 1 μg/kg thrice a week, from five days after second immunization; FIG. 16. The method, then: Chick collagen type II (2.0 mg) was incubated overnight in 0.01 M acetic acid (0.9 ml) at 4° C. The resulting solution was emulsified with equal volume (1.0 ml) of […] Freund's Adjuvant containing 5.0 mg heat-killed Mycobacterium tuberculosis. Thereafter, the animal was injected intradermally in the tail base with 100 μl of the emulsion and an additional immunization was repeated 21 days later. Five days later, UBE or UBE1 polypeptide were administered (1 μg/kg thrice a week). The animals were evaluated for the difference in joint thickness (mm) between the indicated time intervals and prior to immunization.

For the next assay, the system named is severe sepsis. As to conditions: decrease from about 31% without treatment; further trials failed to replicate; cited from earlier work.

Take “SMPPIVRFDHPFLFIIFEEHTQSPLFVGKVVDPTH (listed as Mus musculus) [UBE-C, peptide corresponding to residues 378-412 of Mus musculus alpha-1-antitrypsin (serpin a1c)]”: the “neurological symptoms (neurological score 0 to 6)” value in the assay with Female C57BL/6 mice is listed as “reduced the neurological symptoms”.

Consider “YSMPPIVRFDHPFLFIIFEEHTQSPLFVGKVVDPTHK (listed as Mus musculus) [UBE1, peptide corresponding to residues 377-413 of Mus musculus alpha-1-antitrypsin (serpin a1c)]”, for which, in the assay on arthritic mice, the “joint swelling (difference in joint thickness)” value is recorded as “reduction in joint swelling”. In addition, the “neurological damage in animal models of multiple sclerosis” value in the assay on Female C57BL/6 mice (summary statement, b192 (FIG. 3) does not name UBE1) is reported as “highly effective in eliminating neurological damage”.

Take “MPPIVRFDHPFLFIIFEEHTQSPLFVGKVVDPTHK (listed as Mus musculus) [UBE-N, peptide corresponding to residues 379-413 of Mus musculus alpha-1-antitrypsin (serpin a1c)]”: the “neurological symptoms (neurological score 0 to 6)” value in the assay on Female C57BL/6 mice is “reduced the neurological symptoms”.

On to drotrecogin alfa, for which, in the assay with severe sepsis, the “mortality in severe sepsis” value is “about 25%”.
